{"source": "patent US8883856B2", "about": "“Compositions and methods for the treatment of inflammatory diseases using topoisomerase inhibitors” (priority 2000, dated 2014)", "key": {"[1]": {"tested_on": "surgical adhesions", "format": "in vivo", "conditions": "drug-loaded crosslinked HA films (camptothecin 2.5%, doxorubicin 2.5%, beta-lapachone 5%, curcumin 10%), rats", "procedure": "The rat caecal-sidewall adhesion model was used to test efficacy of crosslinked hyaluroinc acid (HA) polymeric films loaded with one of the following compounds; camptothecin 2.5% loading (w/w to polymer), curcumin 10%, doxorubicin 2.5%, beta-lapachone at 5% or unloaded-no-drug control. Films of 2-2.5 cm^2 were prepared with each drug by the method described in example 10. ETO sterilized, and divided in half at the time of surgical implantation. Sham surgeries omitted the application of HA film as separate controls.\nSprague Dawley rats, 15 male and 15 female, weighing 250-400 g were anaesthetized with Halothane (5%) and maintained, by nose cone, on 1.5-2% Halothane. Surgeries were conducted under sterile conditions. The abdomen was shaved, scrubbed with an antiseptic wash, and opened at the linea alba with a 3 cm incision. A region of the abdominal cavity immediately opposite the large bowel was isolated with bowel clamps, and a #11 scalpel blade was used to score a section of the transversus muscle, describing a rectangle 1×1.5 cm. The muscle was stripped from the peritoneal sidewall with forceps, and minor bleeding was arrested by tamponade. The large bowel was then externalized with sterile swabs, and caecal contents evacuated into the large bowel. Both surfaces of the caecum were stroked, 45 times on each side, with a #10 scalpel blade to produce erythema and punctated bleeding. Each stroke spanned the caecal diameter (approximately 1 cm), and extended along 1.5 cm of the caecal extremity. In only one case did this abrasion procedure cause sustained bleeding requiring ligation. Following 90 blade strokes, the integrity of the tissue was confirmed, and caecum and large bowel were replaced in the pelvis.\nThe film was laid over the rectangular sidewall abrasion (except in the case of sham surgeries), covering the area of damaged tissue. The abraded caecum, relocated in its previous orientation, was than overlaid such that the entire sidewall wound and film were covered by it. Four tacking sutures were placed at the outer extremities of the abraded area of the caecum securing it to the intact peritoneal sidewall immediately outside the rectangular wound area. The abdomen was closed in two layers, and antibiotics administered intramuscularly before the animal regained consciousness.\n. Adhesions over, and adjacent to the caecum were rated according to the following findings: 0: No adhesions connecting caecum to sidewall wound; 1: Filmy or stranded were separable by blunt dissection; 2: Cohesive adhesions attaching the caecum to the sidewall were separable by aggressive blunt dissection; 3: Adhesions inseparable without cutting, or without tearing/damaging caecum. Fractions were assigned where a variety of ratings seemed applicable."}, "[2]": {"tested_on": "smooth muscle cells (A7r5 rat embryonic thoracic aorta)", "experiment": "MTT proliferation/cytotoxicity assay, smooth muscle cells", "format": "cell-based", "conditions": "A7R5, 48 h, read-out: inhibitory concentration that gave 50% effect on proliferation (IC50), smooth muscle cells", "procedure": "(§1) Proliferation was determined using the MTT proliferation/cytotoxicity assay.\n(§2) On day one, 1500-2000 smooth muscle cells (A7r5 rat embryonic thoracic aorta) or synoviocytes (HIG.82 rabbit) were plated per well on a 96-well plate, leaving the first column free of cells (blank). The plate was placed back into the 37° C., CO2 incubator. The following day camptothecin was added at various concentrations. No drugs were added to the first column (blank) and the second column (untreated column) for control. The cells were exposed for 24, 48, and 72 hours. At the end of the exposure period, 50 μl of dimethylthiazol diphenyltetrazolium bromide salt (MTT) dissolved in media was added and allowed to incubate for 4 hours at 37° C. The medium was then aspirated and 200 μl of dimethyl sulfoxide was added. The plate was agitated for 30 minutes and the absorbance read at 562 nm. The optical density measurement was converted to number of cells using a standard plot of optical density with known number of cells and cell viability was expressed as % growth (this value is the % of the control cells)."}, "[3]": {"tested_on": "synoviocytes (HIG.82 rabbit)", "experiment": "MTT proliferation/cytotoxicity assay, synoviocytes", "format": "cell-based", "conditions": "Oryctolagus cuniculus, 48 h, read-out: inhibitory concentration that gave 50% effect on proliferation (IC50), synoviocytes", "procedure": "as §1, §2"}, "[4]": {"tested_on": "human neutrophils", "experiment": "Neutrophil chemiluminescence (neutrophil activation)", "format": "cell-based", "conditions": "Homo sapiens, Neutrophil; activation by MSUM crystals; read-out: IC 50, inhibition of neutrophil chemiluminescence", "procedure": "Freshly prepared human neutrophils were incubated with the compound followed by stimulation of the cells with either plasma opsonized CPPD crystals, the bacterial chemoattractant, fMLP or the phorbol ester, PMA. Stimulation (or activation) of the cells induced superoxide anion generation which could be measured by the emission of light (chemiluminescence). Inhibition of neutrophil function was then determined by inhibition of chemiluminescence. Hanks buffered salt solution (HBSS) pH 7.4 was used throughout the study. All chemicals were purchased from Sigma Chemical Co. (St. Louis, Mo.) unless otherwise stated. All procedures were performed at 37° C. unless otherwise stated. CPPD (triclinic) crystals were prepared and characterized as previously reported (Jackson J K et al., J Rheumatol, 24: 341-348, 1996). The size distribution of the crystals was approximately 33% less than […]. Opsonization of crystals was carried out using 50% heparinized plasma and concentrations of 50 mg of CPPD in 1 mL of 50% plasma. Crystals were incubated with diluted plasma for 30 min at 37° C., centrifuged at 1000×g, then washed in HBSS and recentrifuged. Neutrophils were prepared from freshly collected, human, citrated whole blood. Briefly, 400 mL of blood were mixed with 80 mL of 4% dextran T500 (Pharmacia LKB, Biotechnology AB Uppsala, Sweden) in HBSS and allowed to settle for 1 h. Plasma was collected continuously and 5 mL applied to 5 mL Ficoll Paque (Pharmacia) in 15 mL polypropylene tubes (Corning, N.Y.). Following centrifugation at 500×g for 30 min, the neutrophil pellets were washed free of erythrocytes by 20 s of hypotonic shock. Neutrophils were resuspended in HBSS, kept on ice and used for experiments within 3 h. Neutrophil viability and purity was always greater than 90%.\nA stock solution of drug was diluted in DMSO to give various concentrations of drug. Equal volumes of these solutions were added to neutrophils at 5×10^6 cells per mL under mild vortexing to achieve final concentrations with a final DMSO concentration of 0.25%. This DMSO concentration found to have no effect on control cell responses. Cells were incubated for 15 minutes at 37° C. before addition to crystals, fMLP or PMA.\nChemiluminescence studies were performed at a cell concentration of 5×10^6 cells per mL in HBSS with CPPD (50 mg/mL). In all experiments 0.5 mL of cells were added to 25 mg of CPPD or 1 uM fMLP (and 0.5 uM cytochalasin B) or 0.5 uM PMA in 1.5 ml Eppendorf tubes. To the tubes were added 10 uL of luminol dissolved in 25% DMSO in HBSS to give a final concentration of 1 μM and the samples were mixed to initiate neutrophil activation. Chemiluminescence was monitored using an LKB Luminometer (Model 1250) at 37° C. with shaking immediately prior to measurements to resuspend the crystals. Control tubes contained cells, drug and luminol (crystals absent)."}, "[5]": {"tested_on": "caspase 3", "experiment": "Caspase 3 activation in neutrophils (caspACE assay system)", "format": "cell-based, human", "text": "(§3) The inflammation associated with many forms of arthritis is thought to arise from the presence of large numbers of immune cells, such as neutrophils, in the synovial joints of humans. The extended inflammation associated with crystal induced arthritis arises from the interaction of neutrophils with crystals in the synovial joint. One reason the extended duration of the inflammation in this disease may be due to the inhibition of neutrophil apoptosis by crystals. This inhibition may result in the neutrophils remaining in the joint for extended periods. Compounds that overcome this crystal induced suppression of neutrophil apoptosis therefore allow the more rapid clearance of these cells from the joint with the appropriate abatement of inflammation. The process of apoptosis involves the endonuclease driven cleavage of DNA into fragments which may be visualized as a ladder of bands in an agarose gel electrophoresis experiment. Other assays that may be used include caspase 3 quantitation or measurements of cytoplasmic DNA concentration. […] Agents that inhibit caspase activation levels or reduce cytoplasmic DNA are pro-survival (potentially inflammatory) and agents that promote are pro-apoptotic and anti-inflammatory. The use of these methods and their role in neutrophil affected inflammation is described in detail in Tudan et al. J Rheumatol. 27 p 2463-72. 2000.\n(§4) Methods: Agarose gel banding/laddering of 180 base pairs: Neutrophils were separated from fresh human blood by standard methods (dextran sedimentation and ficoll paque centrifugation) and suspended in buffer at a concentration of 1×10^6 cells/ml. The cells were then incubated with crystals of calcium pyrophosphate dihydrate (CPPD) for 1 hours at 37° C. The cells were then incubated with or without camptothecin (0.1 uM) for 4 hours at 37° C. Neutrophil aliquots (1×10^6 cells) from different conditions were resuspended in 480 μl of lysis buffer (0.6% SDS, 10 mM Tris, 1 mM EDTA (pH 7.0)) and after vigorous mixing were allowed to sit on ice for 20 min after addition of 120 μl of 5M NaCl. In caspase 3 and DNA fragmentation assays a milder detergent (Triton) was used to lyse only the plasma membrane of the cells so that cytoplasmic contents (caspase 3 or DNA fragments) could be assayed. Samples were sedimented at 14,000 rpm at 4° C. for 20 min. The pellet was dried and resuspended in phenol:chloroform. Four hundred fifty μl of the upper phase was added to a new tube, which was then charged with 950 μl of […] and held at −20° C. for 10 min. The DNA was sedimented at 14,000 rpm (4° C.) and carefully washed in 75% ethanol without disturbing the pellet. The DNA was dried at 37° C. and then resuspended in 20 μl sample buffer (50% TBE with 1 μl of 1 ng/ml RNase A (Pharmacia)). The samples were vortexed and allowed to stand at 37° C. for 10 min. Five μl of loading dye (20% Ficoll Paque (Pharmacia), 0.1% bromophenol blue, 0.1% xylene cyanole) was added. Electrophoresis was carried out in 2% agarose at 80 mA, and the gel was then stained with ethidium bromide (Pharmacia) and photographed under U.V. illumination.\nCaspase 3 activation was assayed using a commercial kit for this enzyme (caspACE assay system, Promega Scientific) and cyotplasmic DNA was assayed using a commercial kit (Cell death detection ELISA-Boehringer—Mannheim)."}, "[6]": {"tested_on": "neutrophils", "experiment": "Cytoplasmic DNA fragmentation in neutrophils (Cell death detection ELISA)", "format": "cell-based, human", "text": "as §3\nas §4, with “The samples were vortexed and allowed to stand at 37° C. for 10 min. Five μl of loading dye (20% Ficoll Paque (Pharmacia), 0.1% bromophenol blue, 0.1% xylene cyanole) was added. Electrophoresis was carried out in 2% agarose at 80 mA, and the gel was then stained with ethidium bromide (Pharmacia) and photographed under U.V. illumination.” left out"}}, "note": "Read-outs that look alike come from different tables or passages of the source."}
{"smiles": "COc1cc(/C=C/C(=O)CC(=O)/C=C/c2ccc(O)c(OC)c2)ccc1O", "note": "[curcumin]", "values": [{"measurement": "surgical adhesion formation, in words", "setting": "[1]", "result": "no inhibition of adhesion formation"}, {"measurement": "surgical adhesion formation, in words", "setting": "[1]; listed as circumin", "result": "no inhibitory effect on surgical adhesion formation in rats"}]}
{"smiles": "O=C1C=CC(=O)c2c(O)cccc21", "note": "[juglone]", "values": [{"measurement": "IC50", "setting": "[2]", "result": 2, "unit": "µM"}, {"measurement": "IC50", "setting": "[3]", "result": 4.3, "unit": "µM"}, {"measurement": "IC50", "setting": "[4]", "result": "0.5 to 1", "unit": "µg/mL"}]}
{"smiles": "O=C1c2c(O)ccc(O)c2C(=O)c2c(NCCNCCO)ccc(NCCNCCO)c21", "note": "[mitoxantrone]", "values": [{"measurement": "caspase 3 activation in neutrophils", "setting": "[5]", "result": "induced an increase in the activation of caspase 3 levels"}, {"measurement": "cytoplasmic DNA fragments in neutrophils", "setting": "[6]", "result": "significant increase in cytoplasmic DNA"}]}
{"smiles": "COC(=O)[C@@H]1c2cc3c(c(O)c2[C@@H](O[C@@H]2O[C@@H](C)[C@H](OC)[C@@](C)(OC)[C@H]2OC)C[C@]1(C)O)C(=O)c1c(O)cc2c(c1C3=O)O[C@@H]1O[C@@]2(C)[C@H](O)[C@@H](N(C)C)[C@@H]1O", "note": "[nogalamycin]", "values": [{"measurement": "caspase 3 activation in neutrophils", "setting": "[5]", "result": "induced an increase in the activation of caspase 3 levels"}]}
